Measurements from patent US20240092784A1, “CONDENSED HETEROCYCLIC COMPOUND” (NISSAN CHEMICAL CORPORATION, priority 2020, published 2024).
Structures can show the parent of a compound that is named as a salt.

The compounds below were run against human SPR (Homo sapiens (Human), UniProt P35270) (assay: Evaluation Example 2: Measurement of human SPR inhibitory activity (seven concentrations, sepiapterin absorbance at 420 nm)). Details: Evaluation Example 2, seven concentrations 0.14 nM to 100 nM, 240 minutes at room temperature, read-out: IC50.
Type: biochemical
Summary of the method: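 Reactions ran 240 min at room temperature in 100 mM Tris-HCl pH 7.5 with 0.01% BSA. They contained tag-cleaved, E. coli-expressed full-length human SPR (diluted to 150 ng/mL), seven compound concentrations from 0.14 to 100 nM, and sepiapterin/NADPH added as a 120 μM/160 μM solution. Inhibition was calculated from sepiapterin absorbance at 420 nm.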

human SPR, sequence (P35270 whole entry): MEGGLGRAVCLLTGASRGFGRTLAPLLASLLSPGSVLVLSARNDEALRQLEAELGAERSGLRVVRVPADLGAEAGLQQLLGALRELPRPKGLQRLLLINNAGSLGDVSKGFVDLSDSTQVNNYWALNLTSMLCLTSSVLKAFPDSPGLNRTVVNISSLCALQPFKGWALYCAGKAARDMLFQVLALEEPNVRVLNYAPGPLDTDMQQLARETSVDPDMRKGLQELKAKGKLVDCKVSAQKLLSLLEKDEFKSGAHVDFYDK

Cc1nn2c(O)c(C(=O)NC3CC3)c(=O)n(CC(C)C)c2c1/C=C/C(=O)N1CCCC12CCN(C)CC2 [Synthesis Example 664, (E)-N-Cyclopropyl-7-hydroxy-4-isobutyl-2-methyl-3-(3-(8-methyl-1,8-diazaspiro[4.5]decan-1-yl)-3-oxoprop-1-en-1-yl)-5-oxo-4,5-dihydropyrazolo[1,5-a]pyrimidine-6-carboxamide] and Cc1nn2c(O)c(C(=O)NC3CC3)c(=O)n(CC(C)C)c2c1/C=C/C(=O)N1CCN(C)CC1 [compound 574, (E)-N-Cyclopropyl-7-hydroxy-4-isobutyl-2-methyl-3-(3-(4-methylpiperazin-1-yl)-3-oxoprop-1-en-1-yl)-5-oxo-4,5-dihydropyrazolo[1,5-a]pyrimidine-6-carboxamide] are within 1.5-fold of each other in IC50: 0.77 nM for the first, 0.79 nM for the second.

CC(C)Cn1c(=O)c(C(=O)NC2CC2)c(O)n2nc(-c3cccnc3N)c(/C=C/C(=O)N3CCOCC3)c12 [compound 449, (E)-2-(2-Aminopyridin-3-yl)-N-cyclopropyl-7-hydroxy-4-isobutyl-3-(3-morpholino-3-oxoprop-1-en-1-yl)-5-oxo-4,5-dihydropyrazolo[1,5-a]pyrimidine-6-carboxamide] and Cc1nn2c(O)c(C(=O)NC3CC3)c(=O)n(CC(C)C)c2c1/C=C/C(=O)N1CCOC(C)(C)C1 [Synthesis Example 657, (E)-N-Cyclopropyl-3-(3-(2,2-dimethylmorpholino)-3-oxoprop-1-en-1-yl)-7-hydroxy-4-isobutyl-2-methyl-5-oxo-4,5-dihydropyrazolo[1,5-a]pyrimidine-6-carboxamide] are within 1.5-fold of each other in IC50: 0.84 nM for the first, 0.92 nM for the second.

COC[C@H]1CCCN1C(=O)/C=C/c1cnn2c(O)c(C(=O)NC3CC3)c(=O)n(CC(C)C)c12 [compound 548, (R,E)-N-Cyclopropyl-7-hydroxy-4-isobutyl-3-(3-(2-(methoxymethyl)pyrrolidin-1-yl)-3-oxoprop-1-en-1-yl)-5-oxo-4,5-dihydropyrazolo[1,5-a]pyrimidine-6-carboxamide] and COC[C@@H]1COCCN1C(=O)/C=C/c1cnn2c(O)c(C(=O)NC3CC3)c(=O)n(CC(C)C)c12 [compound 532, (R,E)-N-Cyclopropyl-7-hydroxy-4-isobutyl-3-(3-(3-(methoxymethyl)morpholino)-3-oxoprop-1-en-1-yl)-5-oxo-4,5-dihydropyrazolo[1,5-a]pyrimidine-6-carboxamide] are within 1.5-fold of each other in IC50: 0.79 nM for the first, 0.55 nM for the second.

Going from CC(C)Cn1c(=O)c(C(=O)NC2CC2)c(O)n2ncc(/C=C/C(=O)N3CCN(C4CC4)CC3)c12 [compound 471, (E)-N-Cyclopropyl-3-(3-(4-cyclopropylpiperazin-1-yl)-3-oxoprop-1-en-1-yl)-7-hydroxy-4-isobutyl-5-oxo-4,5-dihydropyrazolo[1,5-a]pyrimidine-6-carboxamide] to CC(C)Cn1c(=O)c(C(=O)NC2CC2)c(O)n2ncc(/C=C/C(=O)N(C)CC3CCOCC3)c12 [compound 499, (E)-N-Cyclopropyl-7-hydroxy-4-isobutyl-3-(3-(methyl((tetrahydro-2H-pyran-4-yl)methyl)amino)-3-oxoprop-1-en-1-yl)-5-oxo-4,5-dihydropyrazolo[1,5-a]pyrimidine-6-carboxamide], the IC50 falls from 1.18 nM to 0.74 nM (1.6-fold).

CC(C)Cn1c(=O)c(C(=O)NC2CC2)c(O)n2ncc(C(=O)N[C@H](C)c3ccccn3)c12 [Synthesis Example 219, (R)-N6-Cyclopropyl-7-hydroxy-4-isobutyl-5-oxo-N3-(1-(pyridin-2-yl)ethyl)-4,5-dihydropyrazolo[1,5-a]pyrimidine-3,6-dicarboxamide] and Cc1ccc(CNC(=O)c2cnn3c(O)c(C(=O)NC4CC4)c(=O)n(CC(C)C)c23)nc1 [Synthesis Example 228, N6-Cyclopropyl-7-hydroxy-4-isobutyl-N3-((5-methylpyridin-2-yl)methyl)-5-oxo-4,5-dihydropyrazolo[1,5-a]pyrimidine-3,6-dicarboxamide] are within 1.5-fold of each other in IC50: 0.98 nM for the first, 1.02 nM for the second.

CC(C)(C)Cn1c(=O)c(C(=O)NC2CC2)c(O)n2nc(Nc3cnc(C(=O)N4CCC(F)(F)CC4)cn3)cc12 [Synthesis Example 355, N-Cyclopropyl-2-((5-(4,4-difluoropiperidine-1-carbonyl)pyrazin-2-yl)amino)-7-hydroxy-4-neopentyl-5-oxo-4,5-dihydropyrazolo[1,5-a]pyrimidine-6-carboxamide] and CC(C)(C)Cn1c(=O)c(C(=O)NC2CC2)c(O)n2nc(Nc3cnc(C#N)cn3)cc12 [Synthesis Example 323, 2-((5-Cyanopyrazin-2-yl)amino)-N-cyclopropyl-7-hydroxy-4-neopentyl-5-oxo-4,5-dihydropyrazolo[1,5-a]pyrimidine-6-carboxamide] are within 1.5-fold of each other in IC50: 1.1 nM for the first, 1.2 nM for the second.

First: CC(C)(C)Cn1c(=O)c(C(=O)NC2CC2)c(O)n2nc(-c3cccnc3N)c(Br)c12 [compound 448, 2-(2-Aminopyridin-3-yl)-3-bromo-N-cyclopropyl-7-hydroxy-4-neopentyl-5-oxo-4,5-dihydropyrazolo[1,5-a]pyrimidine-6-carboxamide]
Second: COc1ccncc1-c1cc2n(CC(C)(C)C)c(=O)c(C(=O)NC3CC3)c(O)n2n1 [Synthesis Example 282, N-Cyclopropyl-7-hydroxy-2-(4-methoxypyridine-3-yl)-4-neopentyl-5-oxo-4,5-dihydropyrazolo[1,5-a]pyrimidine-6-carboxamide]
The IC50 of the first is 1.7-fold higher: 8.22 nM for the first, 4.73 nM for the second. The second is the more potent here.

Going from CC(C)Cn1c(=O)c(C(=O)NC2CC2)c(O)n2ncc(C(=O)NCC3CC(F)(F)C3)c12 [Synthesis Example 222, N6-Cyclopropyl-N3-((3,3-difluorocyclobutyl)methyl)-7-hydroxy-4-isobutyl-5-oxo-4,5-dihydropyrazolo[1,5-a]pyrimidine-3,6-dicarboxamide] to CC(C)Cn1c(=O)c(C(=O)NC2CC2)c(O)n2ncc(CNC(=O)C3CCC(F)(F)CC3)c12 [Synthesis Example 263, N-Cyclopropyl-3-((4,4-difluorocyclohexane-1-carboxamido)methyl)-7-hydroxy-4-isobutyl-5-oxo-4,5-dihydropyrazolo[1,5-a]pyrimidine-6-carboxamide], the IC50 rises from 0.79 nM to 1.22 nM (1.5-fold). The first is the more potent here.

Compared with Cc1nn2c(O)c(C(=O)NC3CC3)c(=O)n(CC(C)C)c2c1/C=C/C(=O)N1CCCC12CCCN(C(=O)OC(C)(C)C)C2 (centres unmarked) [Synthesis Example 660, Tert-butyl (E)-1-(3-(6-(cyclopropylcarbamoyl)-7-hydroxy-4-isobutyl-2-methyl-5-oxo-4,5-dihydropyrazolo[1,5-a]pyrimidin-3-yl)acryloyl)-1,7-diazaspiro[4.5]decane-7-carboxylate], CCOC(=O)/C=C/c1c(NC(=O)OC(C)(C)C)nn2c(O)c(C(=O)NC3CC3)c(=O)n(CC(C)C)c12 [Synthesis Example 412, Ethyl (E)-3-(2-((tert-butoxycarbonyl)amino)-6-(cyclopropylcarbamoyl)-7-hydroxy-4-isobutyl-5-oxo-4,5-dihydropyrazolo[1,5-a]pyrimidin-3-yl)acrylate] is 2.1-fold lower in IC50: 3.97 nM for the first, 1.85 nM for the second.

CC(C)Cn1c(=O)c(C(=O)NC2CC2)c(O)n2ncc(/C=C/C(=O)N(C)CCC#N)c12 [compound 524, (E)-3-(3-((2-Cyanoethyl)(methyl)amino)-3-oxoprop-1-en-1-yl)-N-cyclopropyl-7-hydroxy-4-isobutyl-5-oxo-4,5-dihydropyrazolo[1,5-a]pyrimidine-6-carboxamide] and CCN(CC)C(=O)/C=C/c1cnn2c(O)c(C(=O)NC3CC3)c(=O)n(CC(C)C)c12 [compound 504, (E)-N-Cyclopropyl-3-(3-(diethylamino)-3-oxoprop-1-en-1-yl)-7-hydroxy-4-isobutyl-5-oxo-4,5-dihydropyrazolo[1,5-a]pyrimidine-6-carboxamide] are within 1.5-fold of each other in IC50: 0.72 nM for the first, 0.84 nM for the second.

Compared with C[C@H](Nc1cc2n(CC(C)(C)C)c(=O)c(C(=O)NC3CC3)c(O)n2n1)c1ccccn1 [Synthesis Example 326, (S)-N-Cyclopropyl-7-hydroxy-4-neopentyl-5-oxo-2-((1-(pyridin-2-yl)ethyl)amino)-4,5-dihydropyrazolo[1,5-a]pyrimidine-6-carboxamide], CC(C)(C)Cn1c(=O)c(C(=O)NC2CC2)c(O)n2nc(-c3n[nH]c4ccncc34)cc12 [Synthesis Example 307, N-Cyclopropyl-7-hydroxy-4-neopentyl-5-oxo-2-(1H-pyrazolo[4,3-c]pyridin-3-yl 4,5-dihydropyrazolo[1,5-a]pyrimidine-6-carboxamide hydrochloride] is 1.5-fold higher in IC50: 1.96 nM for the first, 3.03 nM for the second. The first is the more potent here.

Cc1nn2c(O)c(C(=O)NC3CC3)c(=O)n(CC(C)C)c2c1/C=C/C(=O)N(C)Cc1cccnc1 [Synthesis Example 637, (E)-N-Cyclopropyl-7-hydroxy-4-isobutyl-2-methyl-3-(3-(methyl(pyridin-3-ylmethyl)amino)-3-oxoprop-1-en-1-yl)-5-oxo-4,5-dihydropyrazolo[1,5-a]pyrimidine-6-carboxamide] and Cc1nn2c(O)c(C(=O)NC3CC3)c(=O)n(CC(C)C)c2c1/C=C/C(=O)N1CCC[C@H]1C(F)F [Synthesis Example 634, (S,E)-N-Cyclopropyl-3-(3-(2-(difluoromethyl)pyrrolidin-1-yl)-3-oxoprop-1-en-1-yl)-7-hydroxy-4-isobutyl-2-methyl-5-oxo-4,5-dihydropyrazolo[1,5-a]pyrimidine-6-carboxamide] are within 1.5-fold of each other in IC50: 0.89 nM for the first, 1.21 nM for the second.

In the case of CC(C)(C)Cn1c(=O)c(C(=O)NC2CC2)c(O)n2nc(NC(N)=O)c(/C=C/C(=O)N3CCOCC3)c12 [Synthesis Example 424, (E)-N-Cyclopropyl-7-hydroxy-3-(3-morpholino-3-oxoprop-1-en-1-yl)-4-neopentyl-5-oxo-2-ureido-4,5-dihydropyrazolo[1,5-a]pyrimidine-6-carboxamide], the IC50 is reported as 0.67 nM.

Same assay, conditions: sepiapterin absorbance, Table 41, read-out: concentration at 50% inhibition of human SPR (IC50)

Cc1nn2c(O)c(C(=O)NC3CC3)c(=O)n(CC(C)C)c2c1/C=C/C(=O)N1CCc2cnccc21 [Synthesis Example 705, (E)-N-Cyclopropyl-3-(3-(2,3-dihydro-1H-pyrrolo[3,2-c]pyridin-1-yl)-3-oxoprop-1-en-1-yl)-7-hydroxy-4-isobutyl-2-methyl-5-oxo-4,5-dihydropyrazolo[1,5-a]pyrimidine-6-carboxamide] showed an IC50 of 1.58 nM.
